# Measurements as given in patent US9796719B2, “Compounds and pharmaceutical compositions thereof for the treatment of inflammatory disorders” (GALAPAGOS NV, priority 2013, dated 2017).
# Target: hENPP2 (UniProtKB/SwissProt Sequence ref Q13822) (Homo sapiens (Human), UniProt Q13822)
# Experiment: LPC hENPP2 assay (choline release, LPC as substrate)
# Assay type: biochemical
# Experimental: The principle of the assay consists in quantifying the released choline with an enzymatic method using choline oxidase and peroxidase. Choline oxydation by choline oxydase releases betaine and peroxide. The latter is quantified in presence of HRP that converts the peroxide detection agent TOOS and 4-aminoantipyrine into quinoneimine dye. The appearance of quinoneimine dye is measured spectrophotometrically at 555 nm and is proportional to the amount of choline released by ENPP2. Inhibition of ENPP2 will result in a decrease of the signal.
# The reaction is terminated and choline quantified by the addition of a 25 μL of a mixture containing 0.6 U/mL of choline oxidase, 0.6 U/mL of peroxydase, 1.8 mM TOOS, 1.2 mM amino-antipyrine, 20 mM EGTA (stop-developer solution) diluted in the buffer described above. […] is read on the Envision after an incubation of 30 min at room temperature (Excitation 555 nm, excitation light=70%).
row,Compound,IC50 [nM]
1,"CCc1nc2cnc(N3CCNCC3)cn2c1N(C)c1nc(-c2ccc(F)cc2)c(C#N)s1 [Compound 1, 2-((2-ethyl-6-(piperazin-1-yl)imidazo[1,2-a]pyrazin-3-yl)(methyl)amino)-4-(4-fluorophenyl)thiazole-5-carbonitrile]",> 1000
2,"CCc1nc2ccc(C3CCN(CC(=O)N4CC(O)C4)CC3)nn2c1N(C)c1nc(-c2ccc(F)cc2C#N)c(C)s1 [Cpd 210, 2-(2-((2-ethyl-6-(1-(2-(3-hydroxyazetidin-1-yl)-2-oxoethyl)piperidin-4-yl)imidazo[1,2-b]pyridazin-3-yl)(methyl)amino)-5-methylthiazol-4-yl)-5-fluorobenzonitrile]",> 1000
3,"CCc1nc2ccc(N3CCC(=O)C3)nn2c1N(C)c1nc(-c2ccc(F)cc2)c(Cl)s1 [Compound 132, 1-(3-((5-chloro-4-(4-fluorophenyl)thiazol-2-yl)(methyl)amino)-2-ethylimidazo[1,2-b]pyridazin-6-yl)pyrrolidin-3-one]",> 1000
4,"CCc1nc2ccc(N3CCC4(CCN(C(C)=O)C4)C3)nn2c1N(C)c1nc(-c2ccc(F)cc2)c(C#N)s1 (stereo not shown) [Cpd 167, 2-((6-(7-acetoyl-2,7-diazaspiro[4.4]nonan-2-yl)-2-ethylimidazo[1,2-b]pyridazin-3-yl)(methyl)amino)-4-(4-fluorophenyl) thiazole-5-carbonitrile]",0.01 to 100
5,"CCc1nc2ccc(N3CC[C@H](C#N)C3)nn2c1N(C)c1nc(-c2ccc(F)cc2)cs1 [Cpd 128, (S)-1-(2-ethyl-3-((4-(4-fluorophenyl)thiazol-2-yl)(methyl)amino)imidazo[1,2-b]pyridazin-6-yl)pyrrolidine-3-carbonitrile]",> 1000
6,"CCc1nc2ccc(N3CCN(CCCO)CC3)nn2c1N(C)c1nc(-c2ccc(F)cc2)c(CO)s1 [Cpd 50, 3-(4-(2-ethyl-3-((4-(4-fluorophenyl)-5-(hydroxymethyl)thiazol-2-yl)(methyl)amino)imidazo[1,2-b]pyridazin-6-yl)piperazin-1-yl)propan-1-ol]",> 1000
7,"CCc1nc2ccc(N3CCC4(CN(C)C(=O)O4)C3)nn2c1N(C)c1nc(-c2ccc(F)cc2)c(CO)s1 (stereo not shown) [Cpd 120, 7-(2-ethyl-3-((4-(4-fluorophenyl)-5-(hydroxymethyl)thiazol-2-yl)(methyl)amino)imidazo[1,2-b]pyridazin-6-yl)-3-methyl-1-oxa-3,7-diazaspiro[4.4] nonan-2-one]",100 to 500
8,"CCc1nc2ccc(N3CCN(C4CCN(Cc5ccc(OC)cc5)C4=O)CC3)nn2c1N(C)c1nc(-c2ccc(F)cc2)cs1 (stereo not shown) [Cpd 70, 3-(4-(2-ethyl-3-((4-(4-fluorophenyl)thiazol-2-yl)(methyl)amino)imidazo[1,2-b]pyridazin-6-yl)piperazin-1-yl)-1-(4-methoxybenzyl) pyrrolidin-2-one]",500 to 1000
9,"CCc1nc2ccc(N3CCC4(CCNC4)C3)nn2c1N(C)c1nc(-c2ccc(F)cc2)c(C#N)s1 (stereo not shown) [Cpd 166, 2-((2-ethyl-6-(2,7-diazaspiro[4.4]nonan-2-yl)imidazo[1,2-b]pyridazin-3-yl)(methyl)amino)-4-(4-fluorophenyl) thiazole-5-carbonitrile]",100 to 500
10,"CCc1nc2ccc(N3CCC(c4ccccc4)CC3)nn2c1N(C)c1nc(-c2ccc(F)cc2)cs1 [Cpd 113, N-(2-ethyl-6-(4-phenylpiperidin-1-yl)imidazo[1,2-b]pyridazin-3-yl)-4-(4-fluorophenyl)-N-methylthiazol-2-amine]",> 1000
11,"CCc1nc2ccc(N3CCC(CNC(=O)C4CCOCC4)CC3)nn2c1N(C)c1nc(-c2ccc(F)cc2)cs1 [Cpd 107, N-((1-(2-ethyl-3-((4-(4-fluorophenyl)thiazol-2-yl)(methyl)amino)imidazo[1,2-b]pyridazin-6-yl)piperidin-4-yl)methyl) tetrahydro-2H-pyran-4-carboxamide]",500 to 1000
12,"CCc1nc2ccc(N3CCC4(CCN(C(=O)OC(C)(C)C)C4)C3)nn2c1N(C)c1nc(-c2ccc(F)cc2)c(C#N)s1 (stereo not shown) [Cpd 165, tert-butyl 7-(3-((5-cyano-4-(4-fluorophenyl)thiazol-2-yl)(methyl)amino)-2-ethylimidazo[1,2-b]pyridazin-6-yl)-2,7-diazaspiro[4.4] nonane-2-carboxylate]",100 to 500
13,"CCc1nc2ccc(N3CCC4(CC(=O)NC4=O)C3)nn2c1N(C)c1nc(-c2ccc(F)cc2)cs1 (stereo not shown) [Cpd 121, 7-(2-ethyl-3-((4-(4-fluorophenyl)thiazol-2-yl)(methyl)amino)imidazo[1,2-b]pyridazin-6-yl)-2,7-diazaspiro[4.4] nonane-1,3-dione]",> 1000
14,"CCc1nc2ccc(N3CCC(C(=O)N4CCOCC4)C3)nn2c1N(C)c1nc(-c2ccc(F)cc2)cs1 (stereo not shown) [Cpd 141, (1-(2-ethyl-3-((4-(4-fluorophenyl)thiazol-2-yl)(methyl)amino)imidazo[1,2-b]pyridazin-6-yl)pyrrolidin-3-yl)(morpholino) methanone]",> 1000
15,"CCc1nc2ccc(N3CCC(N4CCCCC4)CC3)nn2c1N(C)c1nc(-c2ccc(F)cc2)cs1 [Cpd 111, N-(6-(1,4′-bipiperidin-1′-yl)-2-ethylimidazo[1,2-b]pyridazin-3-yl)-4-(4-fluorophenyl)-N-methylthiazol-2-amine]",> 1000
16,"CCc1nc2ccc(N3CCCC4(CNC(=O)O4)C3)nn2c1N(C)c1nc(-c2ccc(F)cc2)c(C#N)s1 (stereo not shown) [Cpd 162, 2-((2-ethyl-6-(2-oxo-1-oxa-3,7-diazaspiro[4.5]decan-7-yl)imidazo [1,2-b]pyridazin-3-yl)(methyl)amino)-4-(4-fluorophenyl) thiazole-5-carbonitrile]",100 to 500
17,"CCc1nc2ccc(N3CC(C(=O)N4CCC(O)C4)C3)nn2c1N(C)c1nc(-c2ccc(F)cc2)cs1 (stereo not shown) [Cpd 159, (1-(2-ethyl-3-((4-(4-fluorophenyl)thiazol-2-yl)(methyl)amino)imidazo[1,2-b]pyridazin-6-yl)azetidin-3-yl)(3-hydroxypyrrolidin-1-yl)methanone]",> 1000
18,"CCc1nc2ccc(C3CCN(CC(=O)NC)CC3)nn2c1N(C)c1nc(-c2ccc(F)cc2C#N)c(C)s1 [Cpd 211, 2-(4-(3-((4-(2-cyano-4-fluorophenyl)-5-methylthiazol-2-yl)(methyl)amino)-2-ethylimidazo[1,2-b]pyridazin-6-yl)piperidin-l-yl)-N-methylacetamide]",> 1000
19,"CCc1nc2ccc(N3CC[C@@H](NCC(=O)N4CC(O)C4)C3)nn2c1N(C)c1nc(-c2ccc(F)cc2)c(C#N)s1 [Cpd 176, (R)-2-((2-ethyl-6-(3-(2-(3-hydroxyazetidin-1-yl)-2-oxoethylamino)pyrrolidin-1-yl)imidazo[1,2-b]pyridazin-3-yl)(methyl)amino)-4-(4-fluorophenyl) thiazole-5-carbonitrile]",0.01 to 100

# Further lines, results first:
row,IC50 [nM],Compound
1,100 to 500,"CCc1nc2ccc(N3CCN(CC(=O)N4CCCC4C)CC3)nn2c1N(C)c1nc(-c2ccc(F)cc2)cs1 (stereo not shown) [Cpd 28, 2-(4-(2-ethyl-3-((4-(4-fluorophenyl)thiazol-2-yl)(methyl)amino)imidazo[1,2-b]pyridazin-6-yl)piperazin-1-yl)-1-(2-methylpyrrolidin-1-yl)ethanone]"
2,> 1000,"CCNC(=O)COC1CCCN(c2ccc3nc(CC)c(N(C)c4nc(-c5ccc(F)cc5)cs4)n3n2)C1 (stereo not shown) [Cpd 92, N-ethyl-2-(1-(2-ethyl-3-((4-(4-fluorophenyl)thiazol-2-yl)(methyl)amino)imidazo[1,2-b]pyridazin-6-yl)piperidin-3-yloxy)acetamide]"
3,> 1000,"CCc1nc2ccc(N3CCC(CNS(C)(=O)=O)CC3)nn2c1N(C)c1nc(-c2ccc(F)cc2)cs1 [Cpd 105, N-((1-(2-ethyl-3-((4-(4-fluorophenyl)thiazol-2-yl)(methyl)amino)imidazo[1,2-b]pyridazin-6-yl)piperidin-4-yl)methyl) methanesulfonamide]"
4,100 to 500,"CCc1nc2ccc(N3CCN(CC(=O)N4CCC4)CC3)nn2c1N(C)c1nc(-c2ccc(F)cc2)cs1 [Cpd 36, 1-(azetidin-1-yl)-2-(4-(2-ethyl-3-((4-(4-fluorophenyl)thiazol-2-yl)(methyl)amino)imidazo[1,2-b]pyridazin-6-yl)piperazin-1-yl)ethanone]"
5,> 1000,"CCc1nc2ccc(N3CCN(S(C)(=O)=O)[C@H](COC)C3)nn2c1N(C)c1nc(-c2ccc(F)cc2)cs1 [Compound 62, (S)—N-(2-ethyl-6-(3-(methoxymethyl)-4-(methylsulfonyl)piperazin-1-yl)imidazo[1,2-b]pyridazin-3-yl)-4-(4-fluorophenyl)-N-methylthiazol-2-amine]"
6,> 1000,"CCc1nc2ccc(N3CCN(CCNC(=O)OC(C)(C)C)CC3)nn2c1N(C)c1nc(-c2ccc(F)cc2)cs1 [Cpd 56, tert-butyl 2-(4-(2-ethyl-3-((4-(4-fluorophenyl)thiazol-2-yl)(methyl)amino)imidazo[1,2-b]pyridazin-6-yl)piperazin-1-yl)ethylcarbamate]"
7,500 to 1000,"CCc1nc2ccc(N3CCC(NCC(=O)OC)C3)nn2c1N(C)c1nc(-c2ccc(F)cc2)cs1 (stereo not shown) [Cpd 135, methyl 2-(1-(2-ethyl-3-((4-(4-fluorophenyl)thiazol-2-yl)(methyl)amino)imidazo[1,2-b]pyridazin-6-yl)pyrrolidin-3-ylamino)acetate]"
8,> 1000,"CCc1nc2ccc(N3CCC[C@H]3C(=O)O)nn2c1N(C)c1nc(-c2ccc(F)cc2)cs1 [Compound 138, (S)-1-(2-ethyl-3-((4-(4-fluorophenyl)thiazol-2-yl)(methyl)amino)imidazo[1,2-b]pyridazin-6-yl)pyrrolidine-2-carboxylic acid]"
9,> 1000,"CCc1nc2ccc(N3CCN(C(=O)OC(C)(C)C)[C@H](CO)C3)nn2c1N(C)c1nc(-c2ccc(F)cc2)cs1 [Cpd 59, (S)-tert-butyl 4-(2-ethyl-3-((4-(4-fluorophenyl)thiazol-2-yl)(methyl)amino)imidazo[1,2-b]pyridazin-6-yl)-2-(hydroxymethyl) piperazine-1-carboxylate]"
